Reference: US20250115669A1, “FGFR1/KLB Targeting Agonistic Antigen-Binding Proteins and Conjugates Thereof with GLP-1R Agonistic Peptides” (SANOFI, priority 2020, published 2025)
Bridge positions count the residues as written; N and C are the ends. Ends that are not written are not given here. Peptide text beside a SMILES is read from it.

Tests used:
[1] = molecular target: T1, human glucagon (GCG) receptor (Homo sapiens, UniProt P47871); assay: HTRF cAMP assay in HEK-293 cells expressing human glucagon receptor; assay type: cell-based; settings: HEK-293 cells; read-out: HTRF cAMP EC50 Human GCGR
T1 construct: expressed in transfected cells; host or cells: PSC-HEK-293
Method: (§1) Each vial contained 1.8 ml cells. The vials were slowly frozen to −80° C. in isopropanol, and then transferred in liquid nitrogen for storage.
(§2) Cells were resuspended in assay buffer (cell buffer plus 2 mM IBMX) and adjusted to a cell density of 1 million cells/ml.
(§3) For measurement of cAMP generation, 5 μl cells (final 5000 cells/well) and 5 μl of test compound were added to a 384-well plate, followed by incubation for 30 min at room temperature.
(§4) The cAMP generated was determined using a kit from Cisbio Corp. based on HTRF (Homogenous Time Resolved Fluorescence). The cAMP assay was performed according to manufacturer's instructions (Cisbio).

human GIP receptor = molecular target: T2, human GIP receptor (Homo sapiens, UniProt P48546); assay: HTRF cAMP assay in HEK-293 cells expressing human GIP receptor; assay type: cell-based; settings: HEK-293 cells; read-out: HTRF cAMP EC50 Human GIPR
T2 construct: expressed in transfected cells; host or cells: PSC-HEK-293
T2 sequence (P48546 22-466): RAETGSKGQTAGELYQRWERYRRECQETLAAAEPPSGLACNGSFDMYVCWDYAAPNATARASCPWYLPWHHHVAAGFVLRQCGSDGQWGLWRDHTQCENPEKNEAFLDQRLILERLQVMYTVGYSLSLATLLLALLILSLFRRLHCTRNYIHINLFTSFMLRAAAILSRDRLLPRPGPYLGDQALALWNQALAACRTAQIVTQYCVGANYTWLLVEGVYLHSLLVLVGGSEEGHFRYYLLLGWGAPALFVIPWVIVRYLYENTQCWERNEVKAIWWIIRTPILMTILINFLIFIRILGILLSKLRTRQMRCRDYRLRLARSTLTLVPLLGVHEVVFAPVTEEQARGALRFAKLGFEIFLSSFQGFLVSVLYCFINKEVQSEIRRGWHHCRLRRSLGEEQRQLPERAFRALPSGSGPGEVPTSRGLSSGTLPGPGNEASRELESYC
Method: as §1, §2, §3, §4

T1 sequence (P47871 26-477): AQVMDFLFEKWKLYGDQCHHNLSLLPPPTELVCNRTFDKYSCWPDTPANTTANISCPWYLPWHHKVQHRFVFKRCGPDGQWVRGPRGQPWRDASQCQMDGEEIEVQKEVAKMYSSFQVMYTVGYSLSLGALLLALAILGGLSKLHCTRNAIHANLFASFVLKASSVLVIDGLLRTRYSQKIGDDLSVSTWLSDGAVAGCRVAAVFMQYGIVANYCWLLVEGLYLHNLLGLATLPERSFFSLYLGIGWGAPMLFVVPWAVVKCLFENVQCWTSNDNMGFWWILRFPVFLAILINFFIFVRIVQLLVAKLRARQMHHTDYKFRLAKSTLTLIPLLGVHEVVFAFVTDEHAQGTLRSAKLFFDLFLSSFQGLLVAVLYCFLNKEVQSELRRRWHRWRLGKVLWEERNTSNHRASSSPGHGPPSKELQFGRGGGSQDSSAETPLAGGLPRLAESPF

| Molecule | EC50 [1] [nM] | EC50 (human GIP receptor) [nM] |
| --- | --- | --- |
| CC[C@H](C)[C@H](NC(=O)[C@H](CC(C)C)NC(=O)[C@H](Cc1c[nH]c2ccccc12)NC(=O)[C@H](CCC(=O)O)NC(=O)[C@@H](NC(=O)[C@H](Cc1ccccc1)NC(=O)[C@H](CCC(=O)O)NC(=O)[C@H](Cc1c[nH]cn1)NC(=O)[C@H](CCC(N)=O)NC(=O)[C@H](C)NC(=O)[C@H](CCCNC(=N)N)NC(=O)[C@H](CCCCN)NC(=O)[C@H](CCC(=O)O)NC(=O)[C@H](CC(C)C)NC(=O)[C@H](CC(C)C)NC(=O)[C@H](CCC(=O)O)NC(=O)[C@H](CO)NC(=O)[C@H](CC(C)C)NC(=O)[C@H](CC(=O)O)NC(=O)[C@H](CO)NC(=O)[C@@H](NC(=O)[C@H](Cc1ccccc1)NC(=O)[C@@H](NC(=O)CNC(=O)[C@H](CCC(=O)O)NC(=O)CNC(=O)[C@@H](N)Cc1c[nH]cn1)[C@@H](C)O)[C@@H](C)O)[C@@H](C)CC)C(=O)N[C@@H](C)C(=O)NCC(=O)NCC(=O)N1CCC[C@H]1C(=O)N[C@@H](CO)C(=O)N[C@@H](CO)C(=O)NCC(=O)N[C@@H](CCCCN)C(=O)N1CCC[C@H]1C(=O)N1CCC[C@H]1C(=O)N1CCC[C@H]1C(=O)N[C@@H](CCCCN)C(N)=O [Ab P031] (H-HGEGTFTSDLSELLEKRAQHEFIEWLIAGGPSSGKPPPK-NH2; N-terminus assumed) | > 10 | 0.271 |
| CC[C@H](C)[C@H](NC(=O)[C@H](Cc1ccccc1)NC(=O)[C@H](CCC(=O)O)NC(=O)[C@H](Cc1c[nH]cn1)NC(=O)[C@@H](NC(=O)[C@H](C)NC(=O)[C@H](CCCNC(=N)N)NC(=O)[C@H](CCCCN)NC(=O)[C@H](CCC(=O)O)NC(=O)[C@H](CC(C)C)NC(=O)[C@H](CC(C)C)NC(=O)[C@H](CCCCN)NC(=O)[C@H](CO)NC(=O)[C@H](CC(C)C)NC(=O)[C@H](CC(=O)O)NC(=O)[C@H](CO)NC(=O)[C@@H](NC(=O)[C@H](Cc1ccccc1)NC(=O)[C@@H](NC(=O)CNC(=O)[C@H](CCC(=O)O)NC(=O)CNC(=O)[C@@H](N)Cc1c[nH]cn1)[C@@H](C)O)[C@@H](C)O)C(C)C)C(=O)N[C@@H](CCC(=O)O)C(=O)N[C@@H](Cc1c[nH]c2ccccc12)C(=O)N[C@@H](CC(C)C)C(=O)N[C@@H](CCCCN)C(=O)N[C@@H](C)C(=O)NCC(=O)NCC(=O)N1CCC[C@H]1C(=O)N[C@@H](CO)C(=O)N[C@@H](CO)C(=O)NCC(=O)N[C@@H](CCCCN)C(=O)N1CCC[C@H]1C(=O)N1CCC[C@H]1C(=O)N1CCC[C@H]1C(=O)N[C@@H](CCCCN)C(N)=O [Ab P029] (H-HGEGTFTSDLSKLLEKRAVHEFIEWLKAGGPSSGKPPPK-NH2; N-terminus assumed) | > 10 | 1.37 |
| HGEGTFTSDLSILCEKRAVHEFIEWLIAGGPSSGKPPPKPGC-NH2 (disulfide 14-42) [Ab P033] | > 10 | 0.024 |
| CC[C@H](C)[C@H](NC(=O)[C@H](CC(C)C)NC(=O)[C@H](Cc1c[nH]c2ccccc12)NC(=O)[C@H](CCC(=O)O)NC(=O)[C@@H](NC(=O)[C@H](Cc1ccccc1)NC(=O)[C@H](CCC(=O)O)NC(=O)[C@H](Cc1c[nH]cn1)NC(=O)[C@@H](NC(=O)[C@H](C)NC(=O)[C@H](CCCNC(=N)N)NC(=O)[C@H](CCCCN)NC(=O)[C@H](CCC(=O)O)NC(=O)[C@H](CC(C)C)NC(=O)[C@H](CC(C)C)NC(=O)[C@H](CCCCN)NC(=O)[C@H](CO)NC(=O)[C@H](CC(C)C)NC(=O)[C@H](CC(=O)O)NC(=O)[C@H](CO)NC(=O)[C@@H](NC(=O)[C@H](Cc1ccccc1)NC(=O)[C@@H](NC(=O)CNC(=O)[C@H](CCC(=O)O)NC(=O)CNC(=O)[C@@H](N)Cc1c[nH]cn1)[C@@H](C)O)[C@@H](C)O)C(C)C)[C@@H](C)CC)C(=O)N[C@@H](C)C(=O)NCC(=O)NCC(=O)N1CCC[C@H]1C(=O)N[C@@H](CO)C(=O)N[C@@H](CO)C(=O)NCC(=O)N[C@@H](CCCCN)C(=O)N1CCC[C@H]1C(=O)N1CCC[C@H]1C(=O)N1CCC[C@H]1C(=O)N[C@@H](CCCCN)C(N)=O [Ab P027] (H-HGEGTFTSDLSKLLEKRAVHEFIEWLIAGGPSSGKPPPK-NH2; N-terminus assumed) | > 10 | 0.225 |
| CC[C@H](C)[C@H](NC(=O)[C@H](Cc1ccccc1)NC(=O)[C@H](CCC(=O)O)NC(=O)[C@H](Cc1c[nH]cn1)NC(=O)[C@H](CCC(N)=O)NC(=O)[C@H](C)NC(=O)[C@H](CCCNC(=N)N)NC(=O)[C@H](CCCCN)NC(=O)[C@H](CCC(=O)O)NC(=O)[C@H](CC(C)C)NC(=O)[C@H](CC(C)C)NC(=O)[C@H](CCC(=O)O)NC(=O)[C@H](CO)NC(=O)[C@H](CC(C)C)NC(=O)[C@H](CC(=O)O)NC(=O)[C@H](CO)NC(=O)[C@@H](NC(=O)[C@H](Cc1ccccc1)NC(=O)[C@@H](NC(=O)CNC(=O)[C@H](CCC(=O)O)NC(=O)CNC(=O)[C@@H](N)Cc1c[nH]cn1)[C@@H](C)O)[C@@H](C)O)C(=O)N[C@@H](CCC(=O)O)C(=O)N[C@@H](Cc1c[nH]c2ccccc12)C(=O)N[C@@H](CC(C)C)C(=O)N[C@@H](CCCCN)C(=O)N[C@@H](C)C(=O)NCC(=O)NCC(=O)N1CCC[C@H]1C(=O)N[C@@H](CO)C(=O)N[C@@H](CO)C(=O)NCC(=O)N[C@@H](CCCCN)C(=O)N1CCC[C@H]1C(=O)N1CCC[C@H]1C(=O)N1CCC[C@H]1C(=O)N[C@@H](CCCCN)C(N)=O [Ab P032] (H-HGEGTFTSDLSELLEKRAQHEFIEWLKAGGPSSGKPPPK-NH2; N-terminus assumed) | > 10 | 2.37 |
| CC[C@H](C)[C@H](NC(=O)[C@H](Cc1ccccc1)NC(=O)[C@H](CCC(=O)O)NC(=O)[C@H](Cc1c[nH]cn1)NC(=O)[C@H](CCC(N)=O)NC(=O)[C@H](C)NC(=O)[C@H](CCCNC(=N)N)NC(=O)[C@H](CCCCN)NC(=O)[C@H](CCC(=O)O)NC(=O)[C@H](CC(C)C)NC(=O)[C@H](CC(C)C)NC(=O)[C@H](CCCCN)NC(=O)[C@H](CO)NC(=O)[C@H](CC(C)C)NC(=O)[C@H](CC(=O)O)NC(=O)[C@H](CO)NC(=O)[C@@H](NC(=O)[C@H](Cc1ccccc1)NC(=O)[C@@H](NC(=O)CNC(=O)[C@H](CCC(=O)O)NC(=O)CNC(=O)[C@@H](N)Cc1c[nH]cn1)[C@@H](C)O)[C@@H](C)O)C(=O)N[C@@H](CCC(=O)O)C(=O)N[C@@H](Cc1c[nH]c2ccccc12)C(=O)N[C@@H](CC(C)C)C(=O)N[C@@H](CCCCN)C(=O)N[C@@H](C)C(=O)NCC(=O)NCC(=O)N1CCC[C@H]1C(=O)N[C@@H](CO)C(=O)N[C@@H](CO)C(=O)NCC(=O)N[C@@H](CCCCN)C(=O)N1CCC[C@H]1C(=O)N1CCC[C@H]1C(=O)N1CCC[C@H]1C(=O)N[C@@H](CCCCN)C(N)=O [Ab P030] (H-HGEGTFTSDLSKLLEKRAQHEFIEWLKAGGPSSGKPPPK-NH2; N-terminus assumed) | > 10 | 2.76 |
| HGEGTFTSDLSILCEKRAVHEFIEWLKAGGPSSGKPPPKPGC-NH2 (disulfide 14-42) [Ab P034] | > 10 | 0.257 |
